Test results taken from patent publication US6509344B1, “Indenoisoquinolines as antineoplastic agents” (The United States of America as represented by the …, priority 1998, dated 2003).
Where two headings read alike, the source gives them in different places.

How the values were obtained:
SF-539 = experiment: NCI human cancer cell line screen (COMPARE screening), CNS SF-539; type: cell-based; conditions: Homo sapiens; SF-539; concentration causing 50% growth inhibition; read-out: Cytotoxicity (G150 in μM) CNS SF-539
Text: (§1) Considering the diversity of cancer in terms of cell type, morphology, growth rate and other cellular characteristics, the U.S. National Cancer Institute (NCI) has developed a “disease-oriented” approach to anticancer activity screening (M. R. Boyd, in “Principle of Practice of Oncology” […]. Rosenberg (Eds.) Vol. 3, PPO Update, No. 10, 1989). This in vitro prescreening system is based on the measurement of anticancer cytotoxicity against human cancer cell line panels consisting of approximately 60 cell lines of major human cancers (including leukemia and slower growing tumor cells such as lung, colon, breast, skin, kidney, etc.) and is referred hereinafter as “COMPARE” screening. An important advantage of the new in vitro screening panels is the opportunity to facilitate identification of compounds that are selectively more cytotoxic to cells of certain types of cancers, thus increasing the ability to select compounds for further study with respect to specific diseases. The indenoisoquinolines were examined for antiproliferative activity against the human cancer cell lines in the National Cancer Institute screen (COMPARE screening), in which the activity of each compound was evaluated with approximately […] different cancer cell lines of diverse tumor origins.

HCT-116 = experiment: NCI human cancer cell line screen (COMPARE screening), Colon HCT-116; type: cell-based
Text: as §1

OVCAR-3 = experiment: NCI human cancer cell line screen (COMPARE screening), Ovarian OVCAR-3; type: cell-based
Text: as §1

[1] = tested on: approximately 55 different cancer cell lines of diverse tumor origins; experiment: NCI screen mean graph midpoint over all cell lines tested; type: cell-based, human; conditions: for IC50: average GI50 for all cell lines tested (approximately 55), values outside test range taken as 10^-8 or 10^-4 molar, read-out: MGM (mean graph midpoint)
Text: as §1

UACC-62 = experiment: NCI human cancer cell line screen (COMPARE screening), Melanoma UACC-62; type: cell-based
Text: as §1

HOP-62 = experiment: NCI human cancer cell line screen (COMPARE screening), Lung HOP-62; type: cell-based
Text: as §1

topoisomerase I = molecular target: T1, topoisomerase I (Homo sapiens, UniProt P11387); experiment: Topoisomerase I-mediated DNA cleavage assay (3'-end-labeled 161 bp pBluescript SK(-) fragment); type: biochemical; conditions: for Top 1 Cleavage: relative to the activity of 1 μM camptothecin
T1 sequence (P11387 1-765): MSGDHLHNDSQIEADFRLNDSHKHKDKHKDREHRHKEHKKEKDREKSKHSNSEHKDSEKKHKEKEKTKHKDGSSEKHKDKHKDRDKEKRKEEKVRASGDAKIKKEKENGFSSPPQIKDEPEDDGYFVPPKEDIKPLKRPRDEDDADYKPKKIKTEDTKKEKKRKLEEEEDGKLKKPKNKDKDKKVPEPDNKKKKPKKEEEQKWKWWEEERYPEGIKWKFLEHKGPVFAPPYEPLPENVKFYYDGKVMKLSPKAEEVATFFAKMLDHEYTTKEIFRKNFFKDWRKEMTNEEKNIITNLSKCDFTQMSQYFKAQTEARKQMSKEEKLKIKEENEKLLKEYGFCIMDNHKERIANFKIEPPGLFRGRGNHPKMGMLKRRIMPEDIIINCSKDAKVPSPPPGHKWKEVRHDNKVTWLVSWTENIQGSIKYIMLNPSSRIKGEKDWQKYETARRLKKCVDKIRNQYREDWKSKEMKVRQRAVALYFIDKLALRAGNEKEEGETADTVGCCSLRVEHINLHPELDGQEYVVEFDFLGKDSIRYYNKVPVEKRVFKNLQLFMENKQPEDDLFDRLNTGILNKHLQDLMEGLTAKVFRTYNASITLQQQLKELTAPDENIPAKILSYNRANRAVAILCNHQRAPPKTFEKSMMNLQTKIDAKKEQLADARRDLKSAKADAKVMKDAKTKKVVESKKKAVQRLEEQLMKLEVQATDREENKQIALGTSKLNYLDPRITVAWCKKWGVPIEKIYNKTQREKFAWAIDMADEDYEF
Experimental: Topoisomerase I-Mediated DNA Cleavage Reactions Using 3′-End-labeled 161 BP Plasmid DNA
The 161 bp fragment from pBluescript SK(−) phagemid DNA (Stratagene, La Jolla, Calif.) was cleaved with the restriction endonuclease Pvu II and Hind III (New England Biolabs, Beverly, Mass.) in supplied NE buffer 2 (10 μL reactions) for 1 h at 37° C., separated by electrophoresis in a 1% agarose gel made in 1×TBE buffer. The 161 bp fragment was eluted from the gel slice (centrilutor by Amicon) and concentrated in a centricon 50 centrifugal concentrator (Amicon, Beverly, Mass.). Approximately 200 ng of the fragment was 3′-end-labeled at the Hind III site by fill-in reaction with [alpha-^32P]-dCTP and 0.5 mM dATP, dGTP, and dTTP, in React 2 buffer (50 mM Tris-HCl, pH 8.0, […], 50 mM NaCl) with 0.5 units of DNA polymerase I (Klenow fragment). Labeling reactions were followed by phenol-chloroform extraction and ethanol precipitation. The resulting 161 bp 3′-endlabeled DNA fragment was resuspended in water. Aliquots (approximately 50,000 dpm/reaction) were incubated with topoisomerase I at 30° C. for 15 min in the presence of the indicated drug. Reactions were terminated by adding 0.5% SDS. After ethanol precipitation, the samples were resuspended in loading buffer (80% formamide, 10 mM sodium hydroxide, 1 mM sodium EDTA, 0.1% xylene cyanol, and 0.1% bromophenol blue, pH 8.0), and separated in a denaturing gel (16% polyacrylamide, 7 M urea) run at 51° C. The gel was dried and visualized by using a Phosphoimager and ImageQuant software (Molecular Dynamics, Sunnyvale, Calif.).

SN12C = experiment: NCI human cancer cell line screen (COMPARE screening), Renal SN12C; type: cell-based; conditions: Homo sapiens; SN12C; concentration causing 50% growth inhibition; read-out: Cytotoxicity (G150 in μM) Renal SN12C
Text: as §1

DU-145 = experiment: NCI human cancer cell line screen (COMPARE screening), Prostate DU-145; type: cell-based
Text: as §1

MDA-MB-435 = experiment: NCI human cancer cell line screen (COMPARE screening), Breast MDA-MB-435; type: cell-based
Text: as §1

human topoisomerase II = experiment: Topoisomerase II-mediated DNA cleavage assay (5'-end-labeled human c-myc DNA); type: biochemical
[2] = Homo sapiens, HCT-116, concentration causing 50% growth inhibition, read-out: Cytotoxicity (G150 in μM) Colon HCT-116
[3] = Homo sapiens, OVCAR-3, concentration causing 50% growth inhibition, read-out: Cytotoxicity (G150 in μM) Ovarian OVCAR-3
[4] = Homo sapiens, UACC-62, concentration causing 50% growth inhibition, read-out: Cytotoxicity (G150 in μM) Melanoma UACC-62
[5] = Homo sapiens, HOP-62, concentration causing 50% growth inhibition, read-out: Cytotoxicity (G150 in μM) Lung HOP-62
[6] = Homo sapiens, DU-145, concentration causing 50% growth inhibition, read-out: Cytotoxicity (G150 in μM) Prostate DU-145
[7] = Homo sapiens, MDA-MB-435, concentration causing 50% growth inhibition, read-out: Cytotoxicity (G150 in μM) Breast MDA-MB-435

Top 1 Cleavage (topoisomerase I) | induction of topoisomerase II cleavage complexes (human topoisomerase II) | IC50 (HCT-116) | IC50 (OVCAR-3) | IC50 (UACC-62) | IC50 (HOP-62) | IC50 (DU-145) | IC50 (MDA-MB-435) | Structure (SMILES) | IC50 (SF-539) | IC50 (HCT-116; [2]) | IC50 (OVCAR-3; [3]) | IC50 ([1]; Homo sapiens) | IC50 (UACC-62; [4]) | IC50 (HOP-62; [5]) | IC50 (SN12C) | IC50 (DU-145; [6]) | IC50 (MDA-MB-435; [7]) | cytotoxicity (MGM) relative to lead compound 1 [1] | IC50 [1] | further results
0 |  |  |  |  |  |  |  | COc1cc2c3c(n(C)c(=O)c2cc1OC)-c1cc(OCc2ccccc2)c(OCc2ccccc2)cc1C3=O [Compound 13h, 8,9-Dibenzyloxy-5,6-dihydro-5,11-diketo-6-methyl-2,3-dimethoxy-11H-indeno[1,2-c]isoquinoline] | 39 µM | 80 µM | 58 µM | 72 µM | > 100 µM | 46 µM | > 100 µM | > 100 µM | > 100 µM |  |  | 
0 |  |  |  |  |  |  |  | COc1ccc(Cn2c3c(c4cc(OC)c(OC)cc4c2=O)C(=O)c2cc4c(cc2-3)OCO4)cc1 [Compound 13f, 6-(p-Anisyl)-2,3-dimethoxy-5,6-dihydro-5,11-diketo-8,9-methylenedioxy-11H-indeno[1,2-c]isoquinoline] | > 100 µM | > 100 µM | > 100 µM | 70 µM | > 100 µM | 20 µM | > 100 µM | 76 µM | > 100 µM |  |  | 
0 |  |  |  |  |  |  |  | O=C1c2ccccc2-c2oc(=O)c3ccccc3c21 [Compound 2, benz[d]indeno[1,2-b]pyran-5,11-dione] | > 100 µM | > 100 µM | > 100 µM | 85 µM | > 100 µM | > 100 µM | > 100 µM | > 100 µM | > 100 µM |  |  | 
0 | no effect | 0.34 µM | 1.7 µM | 0.38 µM | 0.36 µM | 0.77 µM | 1.4 µM | C=CCN1C(=O)c2cc(OC)c(OC)cc2[C@H]2C(=O)c3cc4c(cc3[C@H]21)OCO4 (relative stereo) [Compound 22, cis-6-Allyl-5,6,12,13-tetrahydro-2,3-dimethoxy-5,11-dioxo-8,9-(methylenedioxy)-(11H)indeno[1,2-c]isoquinoline] |  |  |  |  |  |  |  |  |  | lower MGM than the lead compound 1 | 0.98 µM | 
0 |  |  |  |  |  |  |  | O=C1c2ccccc2-c2c1c1ccccc1c(=O)n2C1CC1 [Compound 5, 6-Cyclopropyl-5,6-dihydro-5,11-diketo-11H-indeno[1,2-c]isoquinoline] | > 100 µM | > 100 µM | > 100 µM | 98 µM | 84 µM | 61 µM | > 100 µM | > 100 µM | > 100 µM |  |  | 

Structure (SMILES) | Top 1 Cleavage (topoisomerase I) | induction of topoisomerase II cleavage complexes (human topoisomerase II) | IC50 (HCT-116) | IC50 (OVCAR-3) | IC50 (UACC-62) | IC50 (HOP-62) | IC50 (DU-145) | IC50 (MDA-MB-435) | IC50 (SF-539) | IC50 (HCT-116; [2]) | IC50 (OVCAR-3; [3]) | IC50 ([1]; Homo sapiens) | IC50 (UACC-62; [4]) | IC50 (HOP-62; [5]) | IC50 (SN12C) | IC50 (DU-145; [6]) | IC50 (MDA-MB-435; [7]) | cytotoxicity (MGM) relative to lead compound 1 [1] | IC50 [1] | further results
CCn1c2c(c3cc(OC)c(OC)cc3c1=O)C(=O)c1cc3c(cc1-2)OCO3 [Compound 13k, 6-Ethyl-5,6-dihydro-5,11-diketo-2,3-dimethoxy-8,9-methylenedioxy-11H-indeno[1,2-c]isoquinoline] | ± (those compounds having less than 20% of the activity of 1 μM camptothecin) | no effect |  |  |  |  |  |  | 2 µM | 2.6 µM | 3 µM | 2.4 µM | 2.1 µM | 2.2 µM | 3.6 µM | 2.3 µM | 2.6 µM |  |  | cytotoxicity (MGM) relative to lead compound 1 ([1]; comparison in words): lower MGM than the lead compound 1; activity in the topoisomerase I cleavage assay (in words) (topoisomerase I): very weak activity
CCCCn1c2c(c3ccccc3c1=O)C(=O)c1cc3c(cc1-2)OCO3 [Compound 13b, 6-(1-Butyl)-5,6-dihydro-5,11-diketo-8,9-methylenedioxy-11H-indeno[1,2-c]isoquinoline] | + (those compounds having between 20% and 50% of the activity of 1 μM camptothecin) | no effect |  |  |  |  |  |  | 9 µM | 2.9 µM | 94 µM | 30 µM | 8.2 µM | 17 µM | 37 µM | 38 µM | > 100 µM |  |  | 
CCN1C(=O)c2cc(OC)c(OC)cc2[C@H]2C(=O)c3cc4c(cc3[C@H]21)OCO4 (relative stereo) [Compound 21, cis-6-Ethyl-5,6,12,13-tetrahydro-2,3-dimethoxy-5,11-dioxo-8,9-(methylene-dioxy)-11H-indeno[1,2-c]isoquinoline] | ± (those compounds having less than 20% of the activity of 1 μM camptothecin) | no effect | 0.29 µM | 0.44 µM | 0.18 µM | 0.29 µM | 0.42 µM | 0.45 µM |  |  |  |  |  |  |  |  |  | lower MGM than the lead compound 1 | 0.81 µM | 
O=C1c2ccccc2-c2c1c1ccccc1c(=O)n2CCCCCO [Compound 8, 5,6-Dihydroxy-6-(5-hydroxy-1-pentyl)-5,11-diketo-11H-indeno[1,2-c]isoquinoline] | + (those compounds having between 20% and 50% of the activity of 1 μM camptothecin) | weak topoisomerase II activity | 3.9 µM | 93 µM | 14.3 µM | 4.4 µM | 3.4 µM | 41 µM |  |  |  |  |  |  |  |  |  | lower MGM than the lead compound 1 | 14 µM | 
